A short description of the series: Oil adsorption test for selection of lipophilic oil absorbent. Type of series: physicochemical. The following applies: for Amount of remained oil: 1.5 g substance (0.1 g hydroxypropyl methyl cellulose and polyethylene oxide, 0.5 g light anhydrous silicic acid), 5 g soybean oil, 15 g purified water, mixed 2 min, centrifuged 3,000 g 5 min, weight of supernatant oil layer; for Adsorption (%): ratio of oil adsorbed (dispersants: oil within dispersing layer) to total oil amount (5 g). Here is the method: In order to select a lipophilic oil absorbent that is capable of adsorbing unabsorbed free oil by the action of a lipase inhibitor, various substances known as a dispersant or adsorbent were subjected to an adsorption test as follows. 1.5 g of each ingredient listed in Table 1 (excepted for 0.1 g of each of hydroxypropyl methyl cellulose and polyethylene oxide, 0.5 g of light anhydrous silicic acid), 5 g of soybean oil and 15 g of purified water were mixed in a test tube for 2 minutes and centrifuged at 3,000 g for 5 minutes. After separating the supernatant oil layer, the oil adsorption degree of each substance was determined.
In table 1, the amount of oil remained was measured from the weight of the oil layer after adsorption, and the adsorption (%) means the ratio of the amount of oil adsorbed (which is obtained by subtracting the remained oil amount from the total oil amount) to the total amount of oil. On using a dispersant, the amount of oil remained means the oil amount of a supernatant excepting oil dispersed layer, and the adsorption (%) means the ratio of the oil amount within the dispersing layer to the total oil amount (5 g).

`CCCCCCCCCCCCOS(=O)(=O)[O-].[Na+]` [Sodium lauryl sulfate]: the “Amount of remained oil” value is recorded as 0.00 g. For the same compound, the “Adsorption (%)” value (sulfate) was 100%.

As to Polyoxyethylene(2) cetyl ether, the “Amount of remained oil” value is given as 2.79 g and the “Adsorption (%)” value is 2.79%.

On to Sorbitan trioleate, for which the “Amount of remained oil” value is reported as 0.17 g and the “Adsorption (%)” value is on record as 1.13%.
